Measurements taken from ChEMBL document CHEMBL2146374, “Fused heterocyclic compounds as ion channel modulators: patent highlight” (ACS Med Chem Lett, 2012).

Molecular target: Nav1.5 (sodium channel protein type 5 subunit alpha) (Homo sapiens, UniProt Q14524)
Test: Inhibition of human Nav1.5 expressed in HEK293 cells at 1 uM by whole cell patch clamp assay
Assay type: cell-based
Conditions: HEK293 cells that express human Nav1.5

Nav1.5 (sodium channel protein type 5 subunit alpha), sequence (Q14524 whole entry): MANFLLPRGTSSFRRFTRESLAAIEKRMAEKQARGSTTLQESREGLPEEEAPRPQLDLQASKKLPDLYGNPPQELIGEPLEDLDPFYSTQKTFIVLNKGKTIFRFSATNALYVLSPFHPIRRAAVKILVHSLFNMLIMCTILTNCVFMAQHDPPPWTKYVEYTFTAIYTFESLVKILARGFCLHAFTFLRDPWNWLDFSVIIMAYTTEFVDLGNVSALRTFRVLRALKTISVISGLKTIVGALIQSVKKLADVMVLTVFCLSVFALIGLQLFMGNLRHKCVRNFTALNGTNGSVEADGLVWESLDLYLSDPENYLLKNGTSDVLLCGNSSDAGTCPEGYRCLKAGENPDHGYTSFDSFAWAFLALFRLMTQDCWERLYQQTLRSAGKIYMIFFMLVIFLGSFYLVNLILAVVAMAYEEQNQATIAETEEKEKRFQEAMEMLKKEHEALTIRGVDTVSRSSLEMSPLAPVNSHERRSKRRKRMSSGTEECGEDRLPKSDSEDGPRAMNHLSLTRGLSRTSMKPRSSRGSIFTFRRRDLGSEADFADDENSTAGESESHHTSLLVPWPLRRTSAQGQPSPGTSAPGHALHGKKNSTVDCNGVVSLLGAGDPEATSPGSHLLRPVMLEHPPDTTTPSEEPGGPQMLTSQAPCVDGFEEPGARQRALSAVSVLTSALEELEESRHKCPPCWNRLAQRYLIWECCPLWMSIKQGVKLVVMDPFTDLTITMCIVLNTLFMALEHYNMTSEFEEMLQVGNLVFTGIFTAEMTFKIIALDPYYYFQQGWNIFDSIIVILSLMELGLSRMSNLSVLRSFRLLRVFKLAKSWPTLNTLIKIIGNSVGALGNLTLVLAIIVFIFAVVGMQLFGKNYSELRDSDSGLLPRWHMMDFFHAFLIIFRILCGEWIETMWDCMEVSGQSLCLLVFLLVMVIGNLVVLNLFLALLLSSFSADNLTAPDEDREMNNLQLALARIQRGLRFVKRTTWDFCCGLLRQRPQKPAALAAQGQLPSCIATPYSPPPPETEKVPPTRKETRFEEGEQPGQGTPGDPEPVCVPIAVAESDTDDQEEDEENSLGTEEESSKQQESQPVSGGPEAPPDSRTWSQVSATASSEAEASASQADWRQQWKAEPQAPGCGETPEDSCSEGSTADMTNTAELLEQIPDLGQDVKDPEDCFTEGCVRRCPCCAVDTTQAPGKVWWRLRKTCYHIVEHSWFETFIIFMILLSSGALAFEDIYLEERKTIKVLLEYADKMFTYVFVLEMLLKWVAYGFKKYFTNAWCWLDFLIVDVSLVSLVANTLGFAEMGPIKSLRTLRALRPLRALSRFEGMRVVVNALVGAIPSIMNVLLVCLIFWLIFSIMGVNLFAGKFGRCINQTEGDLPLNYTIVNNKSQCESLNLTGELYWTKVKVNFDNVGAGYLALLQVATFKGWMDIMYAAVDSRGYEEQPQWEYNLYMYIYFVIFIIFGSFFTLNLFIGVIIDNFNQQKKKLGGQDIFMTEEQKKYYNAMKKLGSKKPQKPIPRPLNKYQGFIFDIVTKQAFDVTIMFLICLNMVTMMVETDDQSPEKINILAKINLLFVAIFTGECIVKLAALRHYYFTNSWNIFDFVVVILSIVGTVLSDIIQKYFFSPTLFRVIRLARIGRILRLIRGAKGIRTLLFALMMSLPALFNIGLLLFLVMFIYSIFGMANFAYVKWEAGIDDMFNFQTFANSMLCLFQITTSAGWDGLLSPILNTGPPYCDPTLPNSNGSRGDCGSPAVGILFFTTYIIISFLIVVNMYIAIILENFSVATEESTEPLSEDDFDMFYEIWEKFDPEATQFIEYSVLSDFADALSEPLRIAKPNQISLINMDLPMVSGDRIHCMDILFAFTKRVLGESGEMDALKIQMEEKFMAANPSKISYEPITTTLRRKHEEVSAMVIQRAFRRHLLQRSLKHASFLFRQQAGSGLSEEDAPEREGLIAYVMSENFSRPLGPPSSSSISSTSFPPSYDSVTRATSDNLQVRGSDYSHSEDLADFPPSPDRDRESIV

Row | Structure (SMILES) | inhibition at 1 µM
1 | Cc1noc(Cn2nc3ccc(-c4ccc(Oc5ccc(F)cc5)cc4)cn3c2=O)n1 | 71.2%
2 | COc1ccccc1OCC(Cn1nc2ccc(-c3ccc(OC(F)(F)F)cc3)cn2c1=O)OC (centres undefined) | 55%
3 | Cc1noc(Cn2nc3ccc(-c4ccc(Oc5ccc(Cl)cc5)cc4)cn3c2=O)n1 | 55.8%
4 | Cc1nc(Cn2nc3ccc(-c4ccc(Oc5ccc(Cl)cc5)cc4)cn3c2=O)no1 | 68.4%
